Holding throughout (format): cell-based
One data set relates to Aspergillus fumigatus. Kind of data set: Antifungal MIC by MTT assay. Conditions: 28℃, 24 h, MTT readout at 570 nm. For orientation: Formazan colour is commonly taken as a measure of viable cells.
The test system of another data set is Aspergillus flavus. Kind of data set: Antifungal MIC by MTT assay. Conditions: 28℃, 24 h, MTT readout at 570 nm.
The subject of data set [1] is Candida albicans (TIMM 1768). The experiment in a line: Antifungal MIC by MTT assay. Conditions: strain TIMM 1768; 28℃, 24 h, MTT readout at 570 nm.
For another data set, the system named is Human erythrocytes. Kind of data set: Cytotoxicity to human erythrocytes (hemolysis). Conditions: for % human erythrocyte hemolysis: 37℃, 90 min, 0.1% Triton X-100 = 100 %; for Cytotoxicity to human erythrocytes (in words): summary of Table 3.
A further data set relates to Trichophyton rubrum. The experiment in a line: Antifungal MIC by MTT assay. Conditions: 28℃, 24 h, MTT readout at 570 nm.
The test system of data set [2] is Candida albicans. Kind of data set: Mechanism of antifungal activity (time-kill, CFU count; cidal or static). Conditions: plated over time on YPD agar, 28℃, 24 h, CFU count (Fig. 2).
For a further data set, the system named is Aspergillus parasticus. The experiment in a line: Antifungal MIC by MTT assay. Conditions: 28℃, 24 h, MTT readout at 570 nm.
Data set [3] has as its system Candida albicans (ATCC 90028). The experiment in a line: Antifungal MIC by MTT assay. Conditions: strain ATCC 90028; 28℃, 24 h, MTT readout at 570 nm.
The test system of a further data set is Malassezia furfur. The experiment in a line: Antifungal MIC by MTT assay. Conditions: 28℃, 24 h, MTT readout at 570 nm.
The next data set has as its system Candida parapsilosis. The experiment in a line: Antifungal MIC by MTT assay. Conditions: 28℃, 24 h, MTT readout at 570 nm.
The next data set concerns Trichosporon beigelii. The experiment in a line: Antifungal MIC by MTT assay. Conditions: 28℃, 24 h, MTT readout at 570 nm.
Data set [4] has as its system Candida albicans. Kind of data set: Activity on dimorphism (FBS-induced hyphae) of pathogenic fungus, microscopy. Conditions: hyphae induced with 20% FBS; 37℃, 24 h; microscopy (Fig. 1).

Values after ≈ are worked out from the molar mass of the structure shown. Where no end group is shown, it is not given here.

A word on the MIC: it is the lowest concentration found to suppress growth. A low value points to a more susceptible organism. With `CC[C@H](C)[C@H](NC(=O)CN)C(=O)NCC(=O)N[C@@H](C)C(=O)N[C@H](C(=O)N[C@@H](CC(C)C)C(=O)N[C@@H](CCCCN)C(=O)N[C@H](C(=O)N[C@@H](CC(C)C)C(=O)N[C@H](C(=O)N[C@H](C(=O)NCC(=O)N[C@@H](CC(C)C)C(=O)N1CCC[C@H]1C(=O)N[C@@H](C)C(=O)N[C@@H](CC(C)C)C(=O)N[C@H](C(=O)N[C@@H](CO)C(=O)N[C@@H](Cc1c[nH]c2ccccc12)C(=O)N[C@H](C(=O)N[C@@H](CCCCN)C(=O)N[C@@H](CCCNC(=N)N)C(=O)N[C@@H](CCCCN)C(=O)N[C@@H](CCCNC(=N)N)C(=O)N[C@@H](CCC(N)=O)C(=O)N[C@@H](CCC(N)=O)C(N)=O)[C@@H](C)CC)[C@@H](C)CC)[C@@H](C)O)[C@@H](C)O)C(C)C)C(C)C` [멜리틴, reference compound], the MIC against Aspergillus fumigatus worked out at 2.5 µM (≈ 7.12 µg/mL); against Aspergillus flavus, 2.5 µM (≈ 7.12 µg/mL); in data set [1], 2.5 µM (≈ 7.12 µg/mL); against Trichophyton rubrum it was 5 µM (≈ 14.2 µg/mL); against Aspergillus parasticus, 5 µM (≈ 14.2 µg/mL); in data set [3] it was 5 µM (≈ 14.2 µg/mL). The figures for the MIC against Malassezia furfur, with Candida parapsilosis and in the data set on Trichosporon beigelii were 1.25 µM (≈ 3.56 µg/mL), 5 µM (≈ 14.2 µg/mL) and 2.5 µM (≈ 7.12 µg/mL), respectively. Moreover, the “% human erythrocyte hemolysis” value in the data set with Human erythrocytes (peptide 3.13 μM) was 98%; in the data set with Human erythrocytes (peptide 6.25 μM) it was 98%; with Human erythrocytes (peptide 12.5 μM), 100%; with Human erythrocytes (peptide 25 μM) it was 100%; with Human erythrocytes (peptide 50 μM), 100%; in the data set with Human erythrocytes (peptide 100 μM), 100%. For the same molecule, in the data set on Human erythrocytes, the “Cytotoxicity to human erythrocytes (in words)” value is given as “낮은 농도에서도 세포 독성이 매우 높게 나타냄”. In addition, in the data set on Candida albicans [2], the “Mode of antifungal action, cidal or static (in words)” value was “효과적으로 사멸(cidal)”.

As to “VTCDVLSFEAKGIAVNHSACALHCIALRKKGGSCQNGVCVCRN (cysteines drawn unpaired) [코프리신]”, the MIC against Aspergillus fumigatus was 5 µM; in the data set on Aspergillus flavus, 10 µM; in data set [1] it was 5 to 10 µM; with Trichophyton rubrum, 20 µM; against Aspergillus parasticus, 10 µM; in [3], 10 µM. Further, the MIC was determined as 5 µM against Malassezia furfur, 10 µM against Candida parapsilosis and 10 µM with Trichosporon beigelii. The “% human erythrocyte hemolysis” value in the data set on Human erythrocytes (peptide 3.13 μM), in the data set with Human erythrocytes (peptide 6.25 μM), in the data set on Human erythrocytes (peptide 12.5 μM), in the data set with Human erythrocytes (peptide 25 μM), in the data set on Human erythrocytes (peptide 50 μM) and in the data set on Human erythrocytes (peptide 100 μM) was 0% each time. Besides, in the data set on Human erythrocytes, the “Cytotoxicity to human erythrocytes (in words)” value is on record as “고농도에서도 전혀 세포 독성을 나타내지 않음”. For the same molecule, the “Mode of antifungal action, cidal or static (in words)” value in the data set with Candida albicans [2] is “효과적으로 사멸(cidal)”. Also, in the data set with Candida albicans [4], the “Effect on hyphae of Candida albicans (in words)” value is reported as “hyphae를 효과적으로 aggregation시킴”.
